Here are results for 5 molecules from ChEMBL document CHEMBL1201862, “PubChem BioAssay data set” (2004).

By IC50 is commonly meant the concentration that gives 50% inhibition. In general, EC50 refers to the concentration needed to bring the measured effect to its halfway point.

Active and inactive are the calls of the source. Where only a bound is given, the exact number is not on record here.

For assay [1], the target named is T1, Kappa-type opioid receptor (Homo sapiens, UniProt P41145). Kind of assay: kappa opioid receptor blockers, cell-based, luminescence, beta-arrestin, SAR follow-up (AID 2285). It counts as functional.
The target in assay [2] is T2, Mu-type opioid receptor (Homo sapiens, UniProt P35372). Kind of assay: mu opioid receptor blockers – image-based, SAR follow-up (AID 2420).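 Also: compounds added before stimulation of receptor with agonist DAMGO.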 It counts as functional.
Assay [3] concerns the target T1, Kappa-type opioid receptor. The assay can be described thus: kappa opioid receptor blockers, image-based, SAR follow-up (AID 2348). It is filed as functional.
Assay [4] deals with T3, Short transient receptor potential channel 4 (Mus musculus, UniProt Q9QUQ5).
T3 sequence (Q9QUQ5 whole entry): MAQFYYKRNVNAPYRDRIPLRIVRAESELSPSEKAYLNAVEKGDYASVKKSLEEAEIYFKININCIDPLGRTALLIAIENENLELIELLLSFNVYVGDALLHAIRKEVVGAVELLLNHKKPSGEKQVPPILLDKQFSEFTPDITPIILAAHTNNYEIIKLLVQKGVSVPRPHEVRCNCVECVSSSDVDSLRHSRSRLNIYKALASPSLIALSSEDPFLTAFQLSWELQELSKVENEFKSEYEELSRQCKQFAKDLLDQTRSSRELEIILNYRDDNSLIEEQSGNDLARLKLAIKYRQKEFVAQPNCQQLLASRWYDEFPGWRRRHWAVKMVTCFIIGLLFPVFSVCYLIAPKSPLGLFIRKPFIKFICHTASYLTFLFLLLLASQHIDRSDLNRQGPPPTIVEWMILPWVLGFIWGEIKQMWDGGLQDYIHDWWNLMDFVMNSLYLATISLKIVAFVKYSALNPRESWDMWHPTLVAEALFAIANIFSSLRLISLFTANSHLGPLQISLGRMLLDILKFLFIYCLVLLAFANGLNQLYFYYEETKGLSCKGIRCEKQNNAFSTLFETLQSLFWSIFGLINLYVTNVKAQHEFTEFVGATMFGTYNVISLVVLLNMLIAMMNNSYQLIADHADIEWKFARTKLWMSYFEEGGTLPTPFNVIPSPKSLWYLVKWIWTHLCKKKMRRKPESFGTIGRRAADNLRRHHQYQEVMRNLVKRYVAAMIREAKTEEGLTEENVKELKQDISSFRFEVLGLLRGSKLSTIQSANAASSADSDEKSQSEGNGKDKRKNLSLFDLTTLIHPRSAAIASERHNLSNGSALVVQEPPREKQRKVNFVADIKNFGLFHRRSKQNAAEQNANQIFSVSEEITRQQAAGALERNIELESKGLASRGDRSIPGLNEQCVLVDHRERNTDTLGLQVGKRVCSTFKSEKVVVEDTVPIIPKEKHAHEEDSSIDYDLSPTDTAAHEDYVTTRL
The assay can be described thus: calcium entry via TRPC4 opening agents – cell-based, HEK293 TRPC4/mu-opioid, Fluo-4 calcium, dose response (AID 434937). It is filed as functional.

Assay [5] addresses T1, Kappa-type opioid receptor. Kind of assay: kappa opioid receptor activation potency – imaging, image-based, SAR follow-up (AID 2359). It counts as functional.
Assay [6] deals with T2, Mu-type opioid receptor. Kind of assay: mu opioid receptor activators, image-based, SAR follow-up (AID 2352). It is filed as functional.
The target of assay [7] is T4, Delta-type opioid receptor (Homo sapiens, UniProt P41143). The assay can be described thus: DOR agonists, SAR follow-up, image-based (AID 2370). It is filed as functional.
Assay [8] deals with T4, Delta-type opioid receptor. The assay can be described thus: delta opioid receptor blockers – image-based, SAR follow-up (AID 2357). It is filed as functional.
The target in assay [9] is Signal transducer and activator of transcription 3 (Homo sapiens, UniProt P40763). The assay can be described thus: STAT3 blockade with qPCR and toxicity readouts – cell-based, STAT1 panel, cytotoxicity, late-stage follow-up, panel member STAT3 Inhibition (AID 2078).
Assay [10] deals with Signal transducer and activator of transcription 1-alpha/beta (Homo sapiens, UniProt P42224). The assay can be described thus: STAT3 blockade with qPCR and toxicity readouts – cell-based, STAT1 panel, cytotoxicity, late-stage follow-up, panel member STAT1 Inhibition (AID 2078). (In general: Real-time PCR tracks product formation cycle by cycle.)
Assay [11] concerns the target T5, Cannabinoid receptor 2 (Homo sapiens, UniProt P34972). The assay can be described thus: SAR analysis of agonists of the Cannabinoid Receptor 2 using an Image-Based Assay - Set 2. [Related pubchem assays (depositor defined):AID1961, AID1965]. It is filed as functional.
A further assay concerns the target Cannabinoid receptor 1 (Homo sapiens, UniProt P21554). The assay can be described thus: SAR analysis of antagonists of the Cannabinoid Receptor 1 using an Image-Based Assay. [Related pubchem assays (depositor defined):AID1961, AID1965]. It counts as functional.
Assay [12] has as its target T5, Cannabinoid receptor 2. Kind of assay: SAR analysis of antagonists of the Cannabinoid Receptor 2 using an Image-Based Assay - Set 2. [Related pubchem assays (depositor defined):AID1961, AID1965]. It counts as functional.
In assay [13] the target is G-protein coupled receptor 55 (Homo sapiens, UniProt Q9Y2T6). The assay can be described thus: SAR analysis of selective Agonists of GPR55 using an Image-Based Assay. [Related pubchem assays (depositor defined):AID1961, AID1965]. It is filed as functional.
In assay [14] the target is Sphingosine 1-phosphate receptor 2 (Homo sapiens, UniProt O95136). Kind of assay: Late stage counterscreen assay for S1P4 antagonists: Fluorescence dose response cell-based screening assay for antagonists of the Sphingosine 1-Phosphate Receptor 2 (S1P2). [Related pubchem assays (depositor defined):AID1510, AID1524, AID1692, AID1853, AID2332, AID489009, AID489017]. It is filed as functional.

In assay [15] the target is Sphingosine 1-phosphate receptor 5 (Homo sapiens, UniProt Q9H228). Kind of assay: Late stage counterscreen assay for S1P4 antagonists: Fluorescence dose response cell-based screening assay for antagonists of the Sphingosine 1-Phosphate Receptor 5 (S1P5). [Related pubchem assays (depositor defined):AID1510, AID1524, AID1692, AID1853, AID2332, AID489009, AID489017]. It is filed as functional. For orientation: Counterscreens check selectivity or assay interference.

The target of assay [16] is Sphingosine 1-phosphate receptor 1 (Homo sapiens, UniProt P21453). The assay can be described thus: Late stage counterscreen assay for S1P4 antagonists: Fluorescence dose response cell-based screening assay for antagonists of the Sphingosine 1-Phosphate Receptor 1 (S1P1). [Related pubchem assays (depositor defined):AID1510, AID1524, AID1692, AID1853, AID2332, AID489009, AID489017]. It counts as functional.

The target in assay [17] is Voltage-dependent T-type calcium channel subunit alpha-1H (Homo sapiens, UniProt O95180). It is filed as functional.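 Also: channel activity triggered by adding a high calcium stimulation buffer.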
Assay [18] concerns the target Sphingosine 1-phosphate receptor 3 (Homo sapiens, UniProt Q99500). Kind of assay: Late stage counterscreen assay for S1P4 antagonists: Fluorescence dose response cell-based screening assay for antagonists of the Sphingosine 1-Phosphate Receptor 3 (S1P3). [Related pubchem assays (depositor defined):AID1510, AID1524, AID1692, AID1853, AID2332, AID489009, AID489017]. It counts as functional.

Assay [19] addresses T6, Ubiquitin-conjugating enzyme E2 N (Homo sapiens, UniProt P61088).
T6 sequence (P61088 whole entry): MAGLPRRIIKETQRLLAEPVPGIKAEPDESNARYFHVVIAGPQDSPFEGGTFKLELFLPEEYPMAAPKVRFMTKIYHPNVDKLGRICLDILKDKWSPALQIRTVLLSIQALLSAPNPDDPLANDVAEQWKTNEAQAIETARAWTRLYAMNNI
It counts as functional.

Assay [20] addresses T6, Ubiquitin-conjugating enzyme E2 N. It is filed as functional. This is another data set of the same source.
For another assay, the target named is T7, Bcl-2-related protein A1 (Mus musculus, UniProt Q07440).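 Also: confirmatory dose–response counterscreen on Bfl-1, used to check hits from a UBC13 polyubiquitin inhibitor campaign.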
T7 sequence (Q07440 whole entry): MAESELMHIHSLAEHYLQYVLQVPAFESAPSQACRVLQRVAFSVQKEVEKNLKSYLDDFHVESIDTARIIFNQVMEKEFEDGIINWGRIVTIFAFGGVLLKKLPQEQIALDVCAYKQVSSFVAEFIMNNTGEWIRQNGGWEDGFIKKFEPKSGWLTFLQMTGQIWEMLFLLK
It counts as functional.

T1 sequence (P41145 whole entry): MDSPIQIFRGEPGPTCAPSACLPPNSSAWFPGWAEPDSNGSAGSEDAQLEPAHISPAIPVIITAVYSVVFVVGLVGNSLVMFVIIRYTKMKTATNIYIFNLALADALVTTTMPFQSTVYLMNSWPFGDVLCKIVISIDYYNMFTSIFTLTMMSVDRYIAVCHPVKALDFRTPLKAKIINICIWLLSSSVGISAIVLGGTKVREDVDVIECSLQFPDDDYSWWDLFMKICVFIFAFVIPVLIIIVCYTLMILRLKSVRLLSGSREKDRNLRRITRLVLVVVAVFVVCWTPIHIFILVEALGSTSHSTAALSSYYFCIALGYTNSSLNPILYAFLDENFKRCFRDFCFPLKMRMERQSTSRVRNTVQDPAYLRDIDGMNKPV
T4 sequence (P41143 whole entry): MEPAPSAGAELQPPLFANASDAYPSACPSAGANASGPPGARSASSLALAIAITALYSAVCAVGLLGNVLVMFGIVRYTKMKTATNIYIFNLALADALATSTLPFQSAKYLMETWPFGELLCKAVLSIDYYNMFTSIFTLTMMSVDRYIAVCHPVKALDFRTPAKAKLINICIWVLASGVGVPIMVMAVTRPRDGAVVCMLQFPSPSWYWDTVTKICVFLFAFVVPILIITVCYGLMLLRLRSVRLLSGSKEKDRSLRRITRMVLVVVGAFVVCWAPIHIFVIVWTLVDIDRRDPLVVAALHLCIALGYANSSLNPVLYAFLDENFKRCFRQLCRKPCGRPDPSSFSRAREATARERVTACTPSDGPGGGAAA
T2 sequence (P35372 whole entry): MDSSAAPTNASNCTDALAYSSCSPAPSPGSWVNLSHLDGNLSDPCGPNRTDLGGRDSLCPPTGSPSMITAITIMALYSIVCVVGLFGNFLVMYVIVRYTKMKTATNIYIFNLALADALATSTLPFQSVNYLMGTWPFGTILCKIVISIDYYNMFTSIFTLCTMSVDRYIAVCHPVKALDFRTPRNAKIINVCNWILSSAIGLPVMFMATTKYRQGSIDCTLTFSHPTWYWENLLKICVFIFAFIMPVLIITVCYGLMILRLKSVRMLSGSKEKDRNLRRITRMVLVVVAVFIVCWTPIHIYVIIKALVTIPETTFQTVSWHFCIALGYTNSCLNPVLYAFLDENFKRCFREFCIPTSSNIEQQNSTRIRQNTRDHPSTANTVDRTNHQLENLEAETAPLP
T5 sequence (P34972 whole entry): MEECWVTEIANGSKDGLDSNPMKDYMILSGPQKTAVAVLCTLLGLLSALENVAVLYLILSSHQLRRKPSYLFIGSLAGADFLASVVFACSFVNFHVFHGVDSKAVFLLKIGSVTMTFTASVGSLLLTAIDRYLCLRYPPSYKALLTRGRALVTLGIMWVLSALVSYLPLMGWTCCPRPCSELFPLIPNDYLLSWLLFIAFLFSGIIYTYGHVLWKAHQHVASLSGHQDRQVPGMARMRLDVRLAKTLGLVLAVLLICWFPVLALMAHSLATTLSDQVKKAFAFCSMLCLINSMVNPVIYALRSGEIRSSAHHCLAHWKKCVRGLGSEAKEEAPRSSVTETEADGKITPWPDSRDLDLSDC
Sequence of Voltage-dependent T-type calcium channel subunit alpha-1H (O95180 whole entry): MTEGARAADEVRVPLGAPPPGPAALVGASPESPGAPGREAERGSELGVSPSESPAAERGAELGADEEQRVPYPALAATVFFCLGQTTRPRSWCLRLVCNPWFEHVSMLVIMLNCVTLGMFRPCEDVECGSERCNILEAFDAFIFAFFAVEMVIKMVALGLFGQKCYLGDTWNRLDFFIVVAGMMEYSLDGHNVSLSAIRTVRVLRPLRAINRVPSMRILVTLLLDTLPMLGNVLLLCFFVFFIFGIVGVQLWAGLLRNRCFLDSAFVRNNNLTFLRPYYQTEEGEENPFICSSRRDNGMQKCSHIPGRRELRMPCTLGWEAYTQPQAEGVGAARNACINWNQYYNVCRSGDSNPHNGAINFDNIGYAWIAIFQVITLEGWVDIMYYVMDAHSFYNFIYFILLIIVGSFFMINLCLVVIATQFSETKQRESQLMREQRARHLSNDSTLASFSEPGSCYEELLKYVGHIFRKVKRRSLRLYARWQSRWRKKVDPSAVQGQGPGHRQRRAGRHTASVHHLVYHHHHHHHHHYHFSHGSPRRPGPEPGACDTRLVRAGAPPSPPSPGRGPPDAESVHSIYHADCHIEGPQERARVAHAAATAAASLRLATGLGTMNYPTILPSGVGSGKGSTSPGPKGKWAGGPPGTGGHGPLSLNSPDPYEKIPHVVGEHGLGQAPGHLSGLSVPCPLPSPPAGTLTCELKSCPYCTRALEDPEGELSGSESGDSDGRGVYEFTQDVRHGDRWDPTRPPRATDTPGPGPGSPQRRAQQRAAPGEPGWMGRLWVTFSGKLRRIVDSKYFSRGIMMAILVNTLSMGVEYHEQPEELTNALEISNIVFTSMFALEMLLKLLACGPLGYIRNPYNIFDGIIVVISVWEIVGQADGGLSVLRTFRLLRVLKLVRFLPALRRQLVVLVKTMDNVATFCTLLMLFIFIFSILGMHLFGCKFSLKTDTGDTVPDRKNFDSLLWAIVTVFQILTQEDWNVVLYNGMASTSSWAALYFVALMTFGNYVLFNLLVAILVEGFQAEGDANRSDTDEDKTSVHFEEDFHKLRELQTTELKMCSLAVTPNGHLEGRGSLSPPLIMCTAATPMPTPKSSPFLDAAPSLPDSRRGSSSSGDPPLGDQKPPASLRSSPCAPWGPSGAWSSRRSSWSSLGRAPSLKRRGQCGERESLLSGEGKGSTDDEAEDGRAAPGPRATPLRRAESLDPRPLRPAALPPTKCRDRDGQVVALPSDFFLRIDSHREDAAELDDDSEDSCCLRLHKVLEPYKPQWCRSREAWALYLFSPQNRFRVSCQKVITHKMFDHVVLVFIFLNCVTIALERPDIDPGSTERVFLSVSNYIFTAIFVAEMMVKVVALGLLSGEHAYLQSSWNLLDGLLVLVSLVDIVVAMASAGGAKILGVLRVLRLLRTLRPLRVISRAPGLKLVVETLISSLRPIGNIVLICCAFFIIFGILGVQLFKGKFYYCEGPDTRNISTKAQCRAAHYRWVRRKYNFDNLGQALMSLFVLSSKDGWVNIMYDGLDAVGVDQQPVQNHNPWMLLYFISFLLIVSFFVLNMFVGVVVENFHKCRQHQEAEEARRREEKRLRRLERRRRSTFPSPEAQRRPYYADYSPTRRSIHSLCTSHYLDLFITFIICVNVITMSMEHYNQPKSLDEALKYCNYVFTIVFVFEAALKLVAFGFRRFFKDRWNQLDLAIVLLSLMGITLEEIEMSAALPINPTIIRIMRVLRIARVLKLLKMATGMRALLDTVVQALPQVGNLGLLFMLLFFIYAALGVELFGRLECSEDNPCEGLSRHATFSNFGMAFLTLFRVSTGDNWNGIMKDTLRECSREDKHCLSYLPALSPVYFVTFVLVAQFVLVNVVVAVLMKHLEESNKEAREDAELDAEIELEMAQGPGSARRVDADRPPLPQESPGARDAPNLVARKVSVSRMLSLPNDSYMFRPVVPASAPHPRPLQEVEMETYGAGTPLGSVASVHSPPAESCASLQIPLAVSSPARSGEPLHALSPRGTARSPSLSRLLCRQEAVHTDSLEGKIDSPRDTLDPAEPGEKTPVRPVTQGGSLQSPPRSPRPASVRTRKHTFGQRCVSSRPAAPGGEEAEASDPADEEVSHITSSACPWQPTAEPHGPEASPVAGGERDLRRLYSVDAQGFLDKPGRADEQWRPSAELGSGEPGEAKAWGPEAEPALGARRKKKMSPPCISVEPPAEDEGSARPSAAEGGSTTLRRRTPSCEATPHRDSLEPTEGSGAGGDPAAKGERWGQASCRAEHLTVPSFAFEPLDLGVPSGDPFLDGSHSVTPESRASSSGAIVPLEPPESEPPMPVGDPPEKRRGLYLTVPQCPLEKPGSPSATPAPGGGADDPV
Sequence of Sphingosine 1-phosphate receptor 1 (P21453 whole entry): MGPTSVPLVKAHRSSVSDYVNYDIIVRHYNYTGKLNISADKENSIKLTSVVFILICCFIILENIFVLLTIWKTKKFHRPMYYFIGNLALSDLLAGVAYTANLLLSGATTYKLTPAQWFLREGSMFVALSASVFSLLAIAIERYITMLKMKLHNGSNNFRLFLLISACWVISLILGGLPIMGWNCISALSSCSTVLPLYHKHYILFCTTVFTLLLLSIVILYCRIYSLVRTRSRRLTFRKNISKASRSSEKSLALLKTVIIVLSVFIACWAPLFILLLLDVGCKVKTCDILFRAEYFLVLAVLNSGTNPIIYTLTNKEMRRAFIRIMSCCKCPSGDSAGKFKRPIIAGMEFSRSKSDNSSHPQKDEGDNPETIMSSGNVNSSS
Sequence of Sphingosine 1-phosphate receptor 5 (Q9H228 whole entry): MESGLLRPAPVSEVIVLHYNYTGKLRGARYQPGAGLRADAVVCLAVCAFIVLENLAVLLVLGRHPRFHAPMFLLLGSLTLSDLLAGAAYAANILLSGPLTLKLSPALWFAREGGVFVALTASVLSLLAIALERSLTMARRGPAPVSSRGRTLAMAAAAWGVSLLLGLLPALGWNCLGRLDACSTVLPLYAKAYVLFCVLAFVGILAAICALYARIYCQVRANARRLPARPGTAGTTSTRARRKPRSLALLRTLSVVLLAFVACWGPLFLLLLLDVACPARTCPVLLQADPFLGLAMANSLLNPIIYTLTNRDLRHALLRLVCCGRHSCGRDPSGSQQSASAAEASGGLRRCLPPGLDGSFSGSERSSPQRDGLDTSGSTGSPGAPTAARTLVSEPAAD
Sequence of Sphingosine 1-phosphate receptor 2 (O95136 whole entry): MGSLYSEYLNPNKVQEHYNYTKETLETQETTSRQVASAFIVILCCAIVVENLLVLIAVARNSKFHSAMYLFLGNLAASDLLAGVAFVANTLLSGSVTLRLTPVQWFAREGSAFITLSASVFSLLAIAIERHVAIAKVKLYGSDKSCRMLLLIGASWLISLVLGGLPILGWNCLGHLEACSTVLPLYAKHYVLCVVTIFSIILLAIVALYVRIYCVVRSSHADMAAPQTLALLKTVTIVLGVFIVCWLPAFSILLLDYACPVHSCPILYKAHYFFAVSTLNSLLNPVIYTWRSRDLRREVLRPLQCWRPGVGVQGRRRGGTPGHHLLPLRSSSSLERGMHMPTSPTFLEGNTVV

Take `CC(=O)c1ccc(S(=O)(=O)NCc2ccc(C(=O)NCC(c3ccccc3)N(C)C)cc2)cc1` (stereo not drawn): the IC50 in [1] is 6.72 µM (active); on Mu-type opioid receptor [2], 1.92 µM (active); in [3] it was 4.73 µM (active); in assay [8] it was > 32 µM (inactive). For the same molecule, the EC50 in assay [4] is 0.596 µM (active); in [5], > 32 µM (inactive); on Mu-type opioid receptor [6], > 32 µM (inactive); in assay [7], 1.6 µM (active).
As for `c1ccc(CC2CCN(c3ncnc4scc(-c5ccccc5)c34)CC2)cc1`, the IC50 in [9] and in assay [10] was > 55.7 µM (inactive) each time.
With `COc1ccc(-c2csc(NC(=O)CSc3nnc4c(C)cc5ccccc5n34)n2)cc1`, the figures for the EC50 (on Cannabinoid receptor 2 [11]; in assay [13]) were > 32 µM (inactive) and 0.658 µM (active), respectively. Besides, the IC50 on Cannabinoid receptor 1 and at Cannabinoid receptor 2 [12] was > 32 µM (inactive) each time.
Take `Cc1cccc(C)c1NC(=O)c1ccc(-c2ccc(Cl)cc2Cl)o1`: the IC50 in [14] was 14.2 µM (inactive); in [15] it was 9.62 µM (active); in assay [16], > 25 µM (inactive); in [18], 25.4 µM (inactive). Moreover, the EC50 in assay [17] is 5.94 µM (active).
`NCCCn1c(C(=O)c2cc(Cl)c(N)c(Cl)c2)c2ccccc2[n+]1[O-]`: the EC50 in assay [4] was 1.88 µM (active). Moreover, the IC50 in assay [19] is 5.33 µM (active); in [20], 12.9 µM (active); at Bcl-2-related protein A1, > 20 µM (inactive).
